Laboratory results from patent US8563597B2, “Fused tricyclic ether carbamates and their use” (priority 2010, dated 2013).
pIC50, pKi: −log10 of the molar value.

Legend:
HIV-1 protease = HIV-1 protease (Human immunodeficiency virus type 1 group M subtype B, UniProt P04585); assay: Enzymatic inhibitory activity (Ki) against HIV-1 protease; assay type: biochemical
HIV-1LAI = assay: Antiviral activity against HIV-1LAI; assay type: cell-based; conditions: Human immunodeficiency virus 1
[1] = tested on: HIV-1ERS104pre (wild-type: X4); assay: Antiviral activity against clinical isolates in PHA-PBMs (p24 Gag production); assay type: cell-based
Excerpt: (§1) Relative Antiviral activity of 33, and 34 against multi-drug resistant clinical isolates in PHA-PBMs

HIV-1MDR/G (X4) = assay: Antiviral activity against multi-drug resistant clinical isolates in PHA-PBMs (p24 Gag production); assay type: cell-based
Excerpt: as §1

HIV-1MDR/C (X4) = assay: as above; assay type: cell-based
Excerpt: as §1

HIV-1MDR/TM (X4) = assay: as above; assay type: cell-based
Excerpt: as §1

HIV-1MDR/MM (R5) = assay: as above; assay type: cell-based
Excerpt: as §1

HIV-1MDR/JSL (R5) = assay: as above; assay type: cell-based
Excerpt: as §1

HIV-1MDR/B (X4) = assay: as above; assay type: cell-based
Excerpt: as §1

[2] = tested on: highly PI-resistant clinical HIV-1 variants; conditions: in vitro; result in words
Description: In another embodiment, novel oxatricyclic [3(R), 3aS, 4aS, 7aR, 8aS] and [3(R), 3aS, 4aR, 7aS, 8aS]-ligands were designed, synthesized, and incorporated into the (R)-hydroxyethyl sulfonamide isostere. […] The antiviral activity of 33 against a panel of highly PI-resistant clinical HIV-1 variants in vitro was measured.

Question: With COc1ccc(S(=O)(=O)N(CC(C)C)C[C@@H](O)[C@H](Cc2ccccc2)NC(=O)OC2CCCC3OC4OCCCC4C23)cc1 (stereo partly shown) as the compound, how does the pKi (HIV-1 protease) read?
Answer: The pKi was greater than 9.00.

Question: How did the pIC50 (HIV-1LAI) turn out when COc1ccc(S(=O)(=O)N(CC(C)C)C[C@@H](O)[C@H](Cc2ccccc2)NC(=O)O[C@H]2CCCC3O[C@H]4OCC[C@H]4C32)cc1 (stereo partly shown) was run?
Answer: Its pIC50 is greater than 8.00.

Question: What about the pKi (HIV-1 protease) of the same compound?
Answer: Its pKi is greater than 10.00.

Question: With COc1ccc(S(=O)(=O)N(CC(C)C)C[C@@H](O)[C@H](Cc2ccccc2)NC(=O)O[C@@H]2C[C@@H]3OC4OCCCC4[C@@H]3C2)cc1 (stereo partly shown) as the compound, how does the pKi (HIV-1 protease) read?
Answer: Its pKi is greater than 10.00.

Question: With CC(C)CN(C[C@@H](O)[C@H](Cc1ccccc1)NC(=O)O[C@H]1CO[C@H]2O[C@@H]3OCC[C@@H]3[C@H]21)S(=O)(=O)c1ccc(N)cc1 as the compound, how does the pKi (HIV-1 protease) read?
Answer: The pKi was greater than 10.00.

Question: COc1ccc(S(=O)(=O)N(CC(C)C)C[C@@H](O)[C@H](Cc2ccccc2)NC(=O)OC2CS(=O)(=O)CC3OC4OCCC4C23)cc1 (stereo partly shown) was tested. Which pKi (HIV-1 protease) did it give?
Answer: Its pKi is greater than 9.00.

Question: COc1ccc(S(=O)(=O)N(CC(C)C)C[C@@H](O)[C@H](Cc2ccccc2)NC(=O)OC2CS(=O)(=O)CC3OC4OCCCC4C23)cc1 (stereo partly shown) was tested. Which pKi (HIV-1 protease) did it give?
Answer: Its pKi is less than 8.00.

Question: CC(C)CN(C[C@@H](O)[C@H](Cc1ccccc1)NC(=O)O[C@@H]1C[C@@H]2[C@H]3COC[C@H]3O[C@@H]2C1)S(=O)(=O)c1ccc(N)cc1 was tested. Which pKi (HIV-1 protease) did it give?
Answer: Its pKi is greater than 10.00.

Question: With CC(C)CN(C[C@@H](O)[C@H](Cc1ccccc1)NC(=O)O[C@H]1CO[C@H]2O[C@@H]3COC[C@@H]3[C@H]21)S(=O)(=O)c1ccc(N)cc1 as the compound, how does the pKi (HIV-1 protease) read?
Answer: The pKi was greater than 10.00.

Question: How did the pKi (HIV-1 protease) turn out when COc1ccc(S(=O)(=O)N(CC(C)C)C[C@@H](O)[C@H](Cc2ccccc2)NC(=O)O[C@H]2CO[C@H]3O[C@@H]4CCO[C@@H]4[C@H]32)cc1 was run?
Answer: The pKi was greater than 10.00.

Question: With COc1ccc(S(=O)(=O)N(CC(C)C)C[C@@H](O)[C@H](Cc2ccccc2)NC(=O)O[C@H]2CO[C@H]3O[C@@H]4COC[C@@H]4[C@H]32)cc1 as the compound, how does the pKi (HIV-1 protease) read?
Answer: Its pKi is greater than 10.00.

Question: How did the pKi (HIV-1 protease) turn out when CC(C)CN(C[C@@H](O)[C@H](Cc1ccccc1)NC(=O)O[C@@H]1C[C@@H]2[C@H]3OCC[C@H]3O[C@@H]2C1)S(=O)(=O)c1ccc(N)cc1 was run?
Answer: The pKi was less than 8.00.

Question: How did the pKi (HIV-1 protease) turn out when CC(C)CN(C[C@@H](O)[C@H](Cc1ccccc1)NC(=O)O[C@H]1CO[C@H]2O[C@@H]3CCO[C@@H]3[C@H]21)S(=O)(=O)c1ccc(N)cc1 was run?
Answer: The pKi was greater than 10.00.

Question: How did the “fold changes of IC50 values compared to wild-type HIV-1ERS104pre” value (shortened to “fold changes of IC50 values”) [1] turn out when CC(C)CN(C[C@@H](O)[C@H](Cc1ccccc1)NC(=O)O[C@H]1CCOC1)S(=O)(=O)c1ccc(N)cc1 [APV, Amprenavir, reference compound] was run?
Answer: The value was 1 fold.

Question: What about the “fold changes of IC50 values” value (HIV-1MDR/G (X4)) of the same compound?
Answer: The value was 15 fold.

Question: And the “fold changes of IC50 values” value (HIV-1MDR/C (X4))?
Answer: Its value is 11 fold.

Question: And the “fold changes of IC50 values” value (HIV-1MDR/TM (X4))?
Answer: The value was 15 fold.

Question: What about the “fold changes of IC50 values” value (HIV-1MDR/MM (R5)) of the same compound?
Answer: The value was 9 fold.

Question: What about the “fold changes of IC50 values” value (HIV-1MDR/JSL (R5)) of the same compound?
Answer: Its value is 13 fold.

Question: What about the “fold changes of IC50 values” value (HIV-1MDR/B (X4)) of the same compound?
Answer: Its value is 16 fold.

Question: What does the source list for CC(C)CN(C[C@@H](O)[C@H](Cc1ccccc1)NC(=O)O[C@H]1CO[C@H]2OCC[C@H]21)S(=O)(=O)c1ccc(N)cc1 [DRV, Darunavir, reference compound]?
Answer: fold changes of IC50 values compared to wild-type HIV-1ERS104pre [1]: 1 fold; fold changes of IC50 values compared to wild-type HIV-1ERS104pre (HIV-1MDR/G (X4)): 6 fold; fold changes of IC50 values compared to wild-type HIV-1ERS104pre (HIV-1MDR/C (X4)): 2 fold; fold changes of IC50 values compared to wild-type HIV-1ERS104pre (HIV-1MDR/TM (X4)): 6 fold; fold changes of IC50 values compared to wild-type HIV-1ERS104pre (HIV-1MDR/MM (R5)): 3 fold; fold changes of IC50 values compared to wild-type HIV-1ERS104pre (HIV-1MDR/JSL (R5)): 5 fold; fold changes of IC50 values compared to wild-type HIV-1ERS104pre (HIV-1MDR/B (X4)): 6 fold

Question: How did the pIC50 (HIV-1LAI) turn out when COc1ccc(S(=O)(=O)N(CC(C)C)C[C@@H](O)[C@H](Cc2ccccc2)NC(=O)O[C@H]2CO[C@H]3O[C@H]4OCC[C@H]4[C@H]32)cc1 [Inhibitor 31] was run?
Answer: The pIC50 was greater than 6.00.

Question: How did the pIC50 (HIV-1LAI) turn out when COc1ccc(S(=O)(=O)N(CC(C)C)C[C@@H](O)[C@H](Cc2ccccc2)NC(=O)O[C@@H]2CO[C@@H]3O[C@@H]4OCC[C@@H]4[C@@H]32)cc1 [Inhibitor 32] was run?
Answer: The pIC50 was greater than 8.00.

Question: With COc1ccc(S(=O)(=O)N(CC(C)C)C[C@@H](O)[C@H](Cc2ccccc2)NC(=O)O[C@H]2CO[C@H]3O[C@@H]4OCC[C@@H]4[C@H]32)cc1 [Inhibitor 33] as the compound, how does the pIC50 (HIV-1LAI) read?
Answer: Its pIC50 is greater than 8.00.

Question: And the “antiviral activity against a panel of highly PI-resistant clinical HIV-1 variants” value [2]?
Answer: Its value is “effectively suppressed all tested clinical HIV-1 variants”.

Question: What about the pKi (HIV-1 protease) of the same compound?
Answer: The pKi was greater than 10.00.

Question: What about the “fold changes of IC50 values” value [1] of the same compound?
Answer: The value was 1 fold.

Question: What about the “fold changes of IC50 values” value (HIV-1MDR/G (X4)) of the same compound?
Answer: Its value is 5 fold.

Question: And the “fold changes of IC50 values” value (HIV-1MDR/C (X4))?
Answer: The value was 2 fold.

Question: What about the “fold changes of IC50 values” value (HIV-1MDR/TM (X4)) of the same compound?
Answer: Its value is 4 fold.

Question: And the “fold changes of IC50 values” value (HIV-1MDR/MM (R5))?
Answer: Its value is 5 fold.

Question: And the “fold changes of IC50 values” value (HIV-1MDR/JSL (R5))?
Answer: Its value is 5 fold.

Question: What about the “fold changes of IC50 values” value (HIV-1MDR/B (X4)) of the same compound?
Answer: Its value is 7 fold.

Question: COc1ccc(S(=O)(=O)N(CC(C)C)C[C@@H](O)[C@H](Cc2ccccc2)NC(=O)O[C@@H]2CO[C@@H]3O[C@H]4OCC[C@H]4[C@@H]32)cc1 [Inhibitor 34] was tested. Which pIC50 (HIV-1LAI) did it give?
Answer: Its pIC50 is greater than 6.00.

Question: What about the pKi (HIV-1 protease) of the same compound?
Answer: The pKi was greater than 8.00.

Question: What about the “fold changes of IC50 values” value [1] of the same compound?
Answer: Its value is 1 fold.

Question: And the “fold changes of IC50 values” value (HIV-1MDR/G (X4))?
Answer: The value was 2 fold.

Question: What about the “fold changes of IC50 values” value (HIV-1MDR/C (X4)) of the same compound?
Answer: Its value is 1 fold.

Question: What about the “fold changes of IC50 values” value (HIV-1MDR/TM (X4)) of the same compound?
Answer: The value was 2 fold.

Question: And the “fold changes of IC50 values” value (HIV-1MDR/MM (R5))?
Answer: Its value is 2 fold.

Question: What about the “fold changes of IC50 values” value (HIV-1MDR/JSL (R5)) of the same compound?
Answer: The value was greater than 2 fold.

Question: And the “fold changes of IC50 values” value (HIV-1MDR/B (X4))?
Answer: Its value is 2 fold.

Question: What does the source list for COc1ccc(S(=O)(=O)N(CC(C)C)C[C@@H](O)[C@H](Cc2ccccc2)NC(=O)O[C@H]2CO[C@H]3C[C@H]4OCC[C@H]4[C@H]32)cc1 [Inhibitor 35]?
Answer: pIC50 (HIV-1LAI): > 6.00; pKi (HIV-1 protease): > 8.00

Question: How did the pIC50 (HIV-1LAI) turn out when COc1ccc(S(=O)(=O)N(CC(C)C)C[C@@H](O)[C@H](Cc2ccccc2)NC(=O)O[C@H]2CO[C@H]3C[C@@H]4OCC[C@@H]4[C@H]32)cc1 [Inhibitor 36] was run?
Answer: Its pIC50 is less than 6.00.

Question: And the pKi (HIV-1 protease)?
Answer: The pKi was greater than 8.00.
